# Measured values: US20240327359A1, “3-ISOXAZOLIDINONE COMPOUND, PREPARATION METHOD, HERBICIDAL COMPOSITION AND APPLICATION THEREOF” (QINGDAO KINGAGROOT CHEMICAL COMPOUND CO., LTD., priority 2021, published 2024)
# Where two headings read alike, the source gives them in different places.
# Experiments:
# [1] = tested on: Echinochloa crusgalli; experiment: Activity test of the compositions, post-emergence treatment by foliage spray; assay type: in vivo; conditions: foliage (F)
# Description: (§1) The desired active ingredient B was purchased from a reagent company or synthesized by a known method. The technical materials were all dissolved in acetone and diluted with an aqueous solution containing 0.10% emulsifier Tween-80 which were to be used immediately after dilution.
# Weeds were cultivated by a pot culture method. […] Weed seeds with plump and uniform grains were selected, soaked in lukewarm water at 25° C. for 6 hours, and germinated in a 28° C. biochemical incubator (in darkness). The weed seeds that had just germinated were evenly placed on the surface of the soil and then covered with 0.5-1 cm soil according to the sizes of seeds.
# The culture was carried out in a controllable sunlight greenhouse at 20 to 30° C., in natural light, and with relative humidity of 57% to 72%.
# (§2) Each treatment was repeated 4 times. Four pots with 20 weed seeds per pot were treated each time.
# The agents were used for only once in total in the experiment. In the stage of 1.5-2 leaves, the weeds were thinned out to maintain 10 weeds per pot. Ten weeds were kept in each treatment, then continued to be cultured until Echinochloa crus-galli var. zelayensis reached the stage of 2-3 leaves, Cirsium setosum reached the stage of 5-6 leaves, Galium aparine reached the stage of 3-4 whorl leaves, Amaranthus retroflexus reached the stage of 3-5 leaves, Echinochloa crusgalli, Lolium multiflorum and Digitaria sanguinalis reached the stage of 3 leaves with one leaf not fully expanding for further treatment.
# (§3) The well-cultured test materials were evenly placed on a platform with an area of 0.5 m^2, and solution of agents was sprayed on the stems and leaves thereof by the 3WP-2000-type walking spray tower at a dosage of 450 kg/ha and at a spray pressure of 0.3 MPa. After all the solution was sprayed, the valve was closed. After 30 seconds, the door of the spray tower was opened, and the nutritional bowl was taken out. Then the valve was opened, and the spray tube was cleaned by spraying 50 ml of water. After the treatment, the weeds were routinely cultured in a greenhouse.
# (§4) A method for investigating absolute numbers was employed. Whole seedlings of survival weeds were cut off with a blade along the soil surface, and the fresh weight of the weeds was weighed with an analytical balance. For dead weeds, the fresh weight thereof was zero.
# (§5) The investigation was performed 21 days after the treatment for only once in total.
# [2] = tested on: weeds; experiment: Activity test of the compositions, soil sealing treatment; assay type: in vivo
# Description: as §1
# Weeds are cultivated in a controllable sunlight greenhouse at 20 to 30° C., in natural light, and with relative humidity of 57% to 72%. […] The test soil was filled quantitatively to ¾ of the pots and then watered from the bottom of the pots to completely wet the soil to saturation. The test weed seeds were accelerated to just germinate, and then evenly and quantitatively sowed on the surface, then covered with 0.5-1 cm soil according to the seed size, and ready for use 72 hours after sowing.
# as §2
# as §3, with “well-sowed” for “well-cultured”, “soil” for “stems and leaves thereof”, “water.” for “water. After the treatment, the weeds were routinely cultured in a greenhouse.”
# as §4, §5
# [3] = Echinochloa crus-galli, soil, read-out: Control effect (%) of B applied alone (B)
# [4] = Echinochloa crusgalli, soil (S), B 0.5 g a.i./mu
# [5] = Echinochloa crusgalli, soil (S), B 1 g a.i./mu
# [6] = Echinochloa crus-galli, Echinochloa crusgalli, soil (S), B 4 g a.i./mu, read-out: Control effect (%) of B applied alone (B)
# [7] = Echinochloa crus-galli, Echinochloa crusgalli, soil (S), B 8 g a.i./mu, read-out: Control effect (%) of B applied alone (B)
# [8] = Lolium multiflorum, soil (S), B 16 g a.i./mu, read-out: Control effect (%) of B applied alone (B)
# [9] = Echinochloa crusgalli, soil (S), B 0.6 g a.i./mu
# [10] = Echinochloa crusgalli, soil (S), B 1.2 g a.i./mu
# [11] = Potamogeton distinctus, soil, read-out: Control effect (%) of B applied alone (B)
# [12] = Echinochloa crusgalli, soil treatment (S), B at 2 g a.i./mu, 21 days
molecule,measurement,setting,value
CCC[S@@+]([O-])c1c(C(F)(F)F)ccc(C(=O)Nc2nnc(C)o2)c1F,Control effect (%) of B applied alone (B),[1]; B 1.5 g a.i./mu,33.8%
same,Control effect (%) of B applied alone (B),[1]; B 3 g a.i./mu,49.7%
CC(C)c1nn(C(=O)NC(C)(C)C)c(=O)n1N [amicarbazone],Control effect (%) of B applied alone (B),[1]; B 4 g a.i./mu,29.8%
same,Control effect (%) of B applied alone (B),[1]; B 8 g a.i./mu,37.2%
COc1cc(OC)nc(Oc2cccc(Oc3nc(OC)cc(OC)n3)c2C(=O)O)n1 [bispyribac],Control effect (%) of B applied alone (B),[1]; B 0.6 g a.i./mu,30.7%
same,Control effect (%) of B applied alone (B),[1]; B 1.2 g a.i./mu,42. %
CCn1ncc(C(=O)c2ccc(S(C)(=O)=O)c(COCC(F)(F)F)c2Cl)c1OC(=O)c1cn(C)nc1C [fenpyrazone],Control effect (%) of B applied alone (B),[1]; B 1.5 g a.i./mu,32.6%
same,Control effect (%) of B applied alone (B),[1]; B 3 g a.i./mu,50.7%
COc1c(Cl)ccc(-c2nc(C(=O)O)c(Cl)c(N)c2F)c1F [florpyrauxifen],Control effect (%) of B applied alone (B),[1]; B 0.5 g a.i./mu,22.5%
same,Control effect (%) of B applied alone (B),[1]; B 1 g a.i./mu,41.3%
CSc1nnc(C(C)(C)C)c(=O)n1N [metribuzin],pest or weed control at 75 g/ha,"[2]; Amaranthus retroflexus, soil (S), B 5 g a.i./mu, read-out: Control effect (%) of B applied alone (B)",40.5%
same,pest or weed control at 150 g/ha,"[2]; Amaranthus retroflexus, soil (S), B 10 g a.i./mu, read-out: Control effect (%) of B applied alone (B)",56.2%
CCSC(=O)N1CCCCCC1 [molinate],pest or weed control at 300 g/ha,"[2]; Echinochloa crus-galli, Echinochloa crusgalli, soil (S), B 20 g a.i./mu, read-out: Control effect (%) of B applied alone (B)",39.6%
same,pest or weed control at 600 g/ha,"[2]; Echinochloa crus-galli, Echinochloa crusgalli, soil (S), B 40 g a.i./mu, read-out: Control effect (%) of B applied alone (B)",51.7%
CCN(CC)C(=O)C(C)Oc1cccc2ccccc12 (stereo not shown) [napropamide],pest or weed control at 120 g/ha,[2]; [3],30.1%
same,pest or weed control at 240 g/ha,[2]; [3],42.3%
C#CCOc1cc(-n2nc(C(C)(C)C)oc2=O)c(Cl)cc1Cl [oxadiargy1],Control effect (%) of B applied alone (B),[2]; [4],36.2%
same,Control effect (%) of B applied alone (B),[2]; [5],47.9%
CC(C)Oc1cc(-n2nc(C(C)(C)C)oc2=O)c(Cl)cc1Cl [oxadiazon],pest or weed control at 60 g/ha,[2]; [6],37.2%
same,pest or weed control at 120 g/ha,[2]; [7],51.9%
CC1=C(c2ccccc2)C(=O)N(C(C)(C)c2cc(Cl)cc(Cl)c2)CO1 [oxaziclomefone],pest or weed control at 7.5 g/ha,"[2]; Echinochloa crus-galli, 504 h, Echinochloa crusgalli, soil treatment (S), B at 0.5 g a.i./mu, 21 days, read-out: Control effect (%) of B applied alone (B)",33.7%
same,pest or weed control at 15 g/ha,"[2]; Echinochloa crus-galli, 504 h, Echinochloa crusgalli, soil treatment (S), B at 1 g a.i./mu, 21 days, read-out: Control effect (%) of B applied alone (B)",51.2%
CCOc1cc(Oc2ccc(C(F)(F)F)cc2Cl)ccc1[N+](=O)[O-] [oxyfluorfen],pest or weed control at 15 g/ha,"[2]; Digitaria sanguinalis, soil (S), B 1 g a.i./mu, read-out: Control effect (%) of B applied alone (B)",28.6%
same,pest or weed control at 30 g/ha,"[2]; Digitaria sanguinalis, soil (S), B 2 g a.i./mu, read-out: Control effect (%) of B applied alone (B)",39.5%
CCC(CC)Nc1c([N+](=O)[O-])cc(C)c(C)c1[N+](=O)[O-] [pendimethalin],pest or weed control at 240 g/ha,[2]; [8],23.6%
same,pest or weed control at 480 g/ha,"[2]; Lolium multiflorum, soil (S), B 32 g a.i./mu, read-out: Control effect (%) of B applied alone (B)",42.7%
CC(C)=C1OC(=O)N(c2cc(OC3CCCC3)c(Cl)cc2F)C1=O [pentoxazone],pest or weed control at 30 g/ha,[2]; [3],40.1%
same,pest or weed control at 60 g/ha,[2]; [3],57.3%
O=C(Nc1ccc(F)cc1)c1cccc(Oc2cccc(C(F)(F)F)c2)n1 [picolinafen],Control effect (%) of B applied alone (B),"[2]; Galium aparine, soil (S), B 0.5 g a.i./mu",40.8%
same,Control effect (%) of B applied alone (B),"[2]; Galium aparine, soil (S), B 1 g a.i./mu",55.7%
CCCOCCN(C(=O)CCl)c1c(CC)cccc1CC [pretilachlor],pest or weed control at 120 g/ha,"[2]; Lolium multiflorum, soil (S), B 8 g a.i./mu, read-out: Control effect (%) of B applied alone (B)",23.4%
same,pest or weed control at 240 g/ha,[2]; [8],50.9%
CSc1nc(NC(C)C)nc(NC(C)C)n1 [prometryne],pest or weed control at 90 g/ha,"[2]; Commelina communis, soil (S), B 6 g a.i./mu, read-out: Control effect (%) of B applied alone (B)",30.5%
same,pest or weed control at 180 g/ha,"[2]; Commelina communis, soil (S), B 12 g a.i./mu, read-out: Control effect (%) of B applied alone (B)",41.7%
CCCc1ccc2nc(Cl)c(S(=O)(=O)NC(=O)Nc3nc(OC)cc(OC)n3)n2n1 [propyrisulfuron],Control effect (%) of B applied alone (B),[2]; [9],22.6%
same,Control effect (%) of B applied alone (B),[2]; [10],37.5%
C#CCN(C)c1c(C#N)cnn1-c1nn2c(c1Cl)CCCC2 [pyraclonil],Control effect (%) of B applied alone (B),[2]; [5],22.5%
same,Control effect (%) of B applied alone (B),"[2]; Echinochloa crusgalli, soil (S), B 2 g a.i./mu",43.6%
Cn1nc(C(F)(F)F)c(CS(=O)(=O)C2=NOC(C)(C)C2)c1OC(F)F [pyroxasulfone],pest or weed control at 30 g/ha,"[2]; Lolium multiflorum, soil (S), B 2 g a.i./mu, read-out: Control effect (%) of B applied alone (B)",24.7%
same,pest or weed control at 60 g/ha,"[2]; Lolium multiflorum, soil (S), B 4 g a.i./mu, read-out: Control effect (%) of B applied alone (B)",49.2%
CC(C)N(C)S(=O)(=O)NC(=O)c1cc(-n2c(=O)cc(C(F)(F)F)n(C)c2=O)c(F)cc1Cl [saflufenacil],pest or weed control at 3.75 g/ha,"[2]; Amaranthus retroflexus, soil (S), B 0.25 g a.i./mu, read-out: Control effect (%) of B applied alone (B)",35.2%
same,pest or weed control at 7.5 g/ha,"[2]; Amaranthus retroflexus, soil (S), B 0.5 g a.i./mu, read-out: Control effect (%) of B applied alone (B)",43.8%
CCNc1nc(NCC)nc(SC)n1 [simetryn],pest or weed control at 90 g/ha,[2]; [11],41.5%
same,pest or weed control at 180 g/ha,[2]; [11],58.3%
Cc1nn(-c2cc(NS(C)(=O)=O)c(Cl)cc2Cl)c(=O)n1C(F)F [sulfentrazone],pest or weed control at 60 g/ha,[2]; [6],34.2%
same,pest or weed control at 120 g/ha,[2]; [7],53.6%
CS(=O)(=O)c1ccc(C(=O)C2C(=O)CCCC2=O)c(Cl)c1COCC1CCCO1 (stereo not shown) [tefuryltrione],Control effect (%) of B applied alone (B),[2]; [9],28.4%
same,Control effect (%) of B applied alone (B),[2]; [10],49.7%
CCNc1nc(NC(C)(C)C)nc(SC)n1 [terbutryne],Control effect (%) of B applied alone (B),"[2]; Alopecurus japonicus, soil (S), B 12 g a.i./mu",32.4%
same,Control effect (%) of B applied alone (B),"[2]; Alopecurus japonicus, soil (S), B 24 g a.i./mu",41.9%
CCNc1nc(Cl)nc(NC(C)(C)C)n1 [terbutylazine],Control effect (%) of B applied alone (B),"[2]; Echinochloa crusgalli, soil (S), B 6 g a.i./mu",33.8%
same,Control effect (%) of B applied alone (B),"[2]; Echinochloa crusgalli, soil (S), B 12 g a.i./mu",52.7%
CN1C[C@H](c2cccc(C(F)(F)F)c2)[C@@H](C(=O)Nc2ccccc2F)C1=O [tetflupyrolimet],Control effect (%) of B applied alone (B),"[2]; Echinochloa crusgalli, soil treatment (S), B at 1 g a.i./mu, 21 days",34.7%
same,Control effect (%) of B applied alone (B),[2]; [12],55.6%
COc1nc(OC)nc(C(=O)c2cccc(F)c2N(C)S(=O)(=O)C(F)F)n1 [triafamone],Control effect (%) of B applied alone (B),"[2]; Echinochloa crusgalli, soil (S), B 0.25 g a.i./mu",27.6%
same,Control effect (%) of B applied alone (B),[2]; [4],38.4%
Cc1cc(C)cc(OCC(C)Nc2nc(N)nc(C(C)(C)F)n2)c1 (stereo not shown) [triaziflam],Control effect (%) of B applied alone (B),[2]; [12],29.4%
same,Control effect (%) of B applied alone (B),"[2]; Echinochloa crusgalli, soil treatment (S), B at 4 g a.i./mu, 21 days",40.5%
C#CCN1C(=O)C(F)(F)Oc2cc(F)c(-n3c(=O)n(C)c(=S)n(C)c3=O)cc21 [trifludimoxazin],Control effect (%) of B applied alone (B),"[2]; Lolium multiflorum, soil (S), B 2 g a.i./mu",31.5%
same,Control effect (%) of B applied alone (B),"[2]; Lolium multiflorum, soil (S), B 4 g a.i./mu",42.6%
S-metolachlor,Control effect (%) of B applied alone (B),"[2]; Lolium multiflorum, soil (S), B 12 g a.i./mu",32.1%
same,Control effect (%) of B applied alone (B),"[2]; Lolium multiflorum, soil (S), B 24 g a.i./mu",53.6%
fluridone,Control effect (%) of B applied alone (B),"[2]; Veronica didyma, soil (S), B 1 g a.i./mu",37.2%
same,Control effect (%) of B applied alone (B),"[2]; Veronica didyma, soil (S), B 2 g a.i./mu",50.4%
